# Patent US8030354B2, “Substituted biphenyl GPR40 modulators” (Amgen Inc., priority 2007, dated 2011)
# Biological target: GPR40 (Homo sapiens, UniProt O14842)
# Experiment: Cell-based aequorin assay (CHO cells stably expressing GPR40 and aequorin)
# Set-up: expressed in transfected cells; host or cells: CHO cells stably transfected with GPR40 and aequorin
# Details: activation of human GPR40, CHO cells, 0.01% HSA
# Outline: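 CHO cells stably co-expressing GPR40 and aequorin, loaded with coelenterazine (1 ug/mL, 2 h, room temperature) in H/HBSS with 20 mM Hepes and 0.01% fatty acid-free HSA. Serially diluted compounds added; luminescence recorded over 20 s. EC50 from dose-response of maximum relative light units.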
# GPR40, sequence (O14842 whole entry): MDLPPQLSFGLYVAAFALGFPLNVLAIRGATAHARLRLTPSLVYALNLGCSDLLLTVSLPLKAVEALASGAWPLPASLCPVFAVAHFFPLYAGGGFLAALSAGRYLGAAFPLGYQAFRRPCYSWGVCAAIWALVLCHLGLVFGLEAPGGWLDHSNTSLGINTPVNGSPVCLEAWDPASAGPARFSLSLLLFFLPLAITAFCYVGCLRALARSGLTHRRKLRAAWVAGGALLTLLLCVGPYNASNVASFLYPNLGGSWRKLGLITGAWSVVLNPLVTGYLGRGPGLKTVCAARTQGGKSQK
row,Compound,EC50 [µM]
1,"CCCC(CC(=O)O)c1cccc(OCc2ccc(-c3cc(OC)ccc3F)c(/C=C/C3CC3)c2)c1 (single isomer, unassigned) [Example 67.9, (3R)-3-(3-(((2-((E)-2-Cyclopropylethenyl)-2′-fluoro-5′-(methyloxy)-1,1′-biphenyl-4-yl)methyl)oxy)phenyl)hexanoic acid or (3S)-3-(3-(((2-((E)-2-cyclopropylethenyl)-2′-fluoro-5′-(methyloxy)-1,1′-biphenyl-4-yl)methyl)oxy)phenyl)hexanoic acid]",1 to 10
2,"CCCC(CC(=O)O)c1cccc(OCc2ccc(-c3cc(OC)ccc3F)c(C3CCCC3)c2)c1 (single isomer, unassigned) [Example 67.10, (3R)-3-(3-(((2-Cyclopentyl-2′-fluoro-5′-(methyloxy)-1,1′-biphenyl-4-yl)methyl)oxy)p acid or (3S)-3-(3-(((2-cyclopentyl-2′-fluoro-5′-(methyloxy)-1,1′-biphenyl-4-yl)methyl)oxy)phenyl)hexanoic acid]",0.1 to 1
3,"CCCCOc1cc(COc2cccc(C(CCC)CC(=O)O)c2)ccc1-c1cccc(OC)c1 (single isomer, unassigned) [Example 67.13, (3R)-3-(3-(((2-(Butyloxy)-3′-(methyloxy)-1,1′-biphenyl-4-yl)methyl)oxy)phenyl)hexanoic acid or (3S)-3-(3-(((2-(butyloxy)-3′-(methyloxy)-1,1′-biphenyl-4-yl)methyl)oxy)phenyl)hexanoic acid]",0.1 to 1
4,"CCC[C@H](CC(=O)O)c1cccc(OCc2ccc(-c3cc(OC)ccc3F)c(OC3CCCCO3)c2)c1 (single isomer, unassigned) [Example 67.14, (3R)-3-(3-(((2′-Fluoro-5′-(methyloxy)-2-(tetrahydro-2H-pyran-2-yloxy)-1,1′-biphenyl-4-yl)methyl)oxy)phenyl)hexanoic acid or (3S)-3-(3-(((2′-fluoro-5′-(methyloxy)-2-(tetrahydro-2H-pyran-2-yloxy)-1,1′-biphenyl-4-yl)methyl)oxy)phenyl)hexanoic acid]",0.1 to 1
5,"CCCCCCOc1cc(COc2cccc([C@H](CCC)CC(=O)O)c2)ccc1-c1cc(OC)ccc1F (single isomer, unassigned) [Example 67.15, (3R)-3-(3-(((2′-Fluoro-2-(hexyloxy)-5′-(methyloxy)-1,1′-biphenyl-4-yl)methyl)oxy)phenyl)hexanoic acid or (3S)-3-(3-(((2′-fluoro-2-(hexyloxy)-5′-(methyloxy)-1,1′-biphenyl-4-yl)methyl)oxy)phenyl)hexanoic acid]",0.1 to 1
6,"CCCC(CC(=O)O)c1cccc(OCc2ccc(-c3cc(OC)ccc3F)c(OCCCC(C)C)c2)c1 (single isomer, unassigned) [Example 67.16, (3R)-3-(3-(((2′-Fluoro-5′-(methyloxy)-2-((4-methylpentyl)oxy)-1,1′-biphenyl-4-yl)methyl)oxy)phenyl)hexanoic acid or (3S)-3-(3-(((2′-fluoro-5′-(methyloxy)-2-((4-methylpentyl)oxy)-1,1′-biphenyl-4-yl)methyl)oxy)phenyl)hexanoic acid]",0.1 to 1
7,"CCCC(CC(=O)O)c1cccc(OCc2ccc(-c3cc(OC)ccc3F)c(OCC3CCCCC3)c2)c1 (single isomer, unassigned) [Example 67.17, (3R)-3-(3-(((2-((Cyclohexylmethyl)oxy)-2′-fluoro-5′-(methyloxy)-1,1′-biphenyl-4-yl)methyl)oxy)phenyl)hexanoic acid or (3S)-3-(3-(((2-((cyclohexylmethyl)oxy)-2′-fluoro-5′-(methyloxy)-1,1′-biphenyl-4-yl)methyl)oxy)phenyl)hexanoic acid]",0.1 to 1
8,"CCC[C@H](CC(=O)O)c1cccc(OCc2ccc(-c3ccccc3F)c(C(C)(C)C)c2)c1 (single isomer, unassigned) [Example 67.18, (3R)-3-(3-(((2-(1,1-Dimethylethyl)-2′-fluoro-1,1′-biphenyl-4-yl)methyl)oxy)phenyl)hexanoic acid or (3S)-3-(3-(((2-(1,1-dimethylethyl)-2′-fluoro-1,1′-biphenyl-4-yl)methyl)oxy)phenyl)hexanoic acid]",1 to 10
9,"CCC[C@H](CC(=O)O)c1cccc(OCc2ccc(-c3ccc(OC)nc3)c(C(C)(C)C)c2)c1 (single isomer, unassigned) [Example 67.19, (3R)-3-(3-(((3-(1,1-Dimethylethyl)-4-(6-(methyloxy)-3-pyridinyl)phenyl)methyl)oxy)phenyl)hexanoic acid or (3S)-3-(3-(((3-(1,1-dimethylethyl)-4-(6-(methyloxy)-3-pyridinyl)phenyl)methyl)oxy)phenyl)hexanoic acid]",1 to 10
10,"CCCC(CC(=O)O)c1cccc(OCc2ccc(-c3cccc(OC)n3)cc2)c1 (single isomer, unassigned) [Example 67.22, (3R)-3-(3-(((4-(6-(Methyloxy)-2-pyridinyl)phenyl)methyl)oxy)phenyl)hexanoic acid or (3S)-3-(3-(((4-(6-(methyloxy)-2-pyridinyl)phenyl)methyl)oxy)phenyl)hexanoic acid]",1 to 10
11,"CCC[C@H](CC(=O)O)c1cccc(OCc2ccc(-c3cc(OC)ccc3F)c(COCC)c2)c1 (single isomer, unassigned) [Example 67.23, (3R)-3-(3-(((2-((Ethyloxy)methyl)-2′-fluoro-5′-(methyloxy)-1,1′-biphenyl-4-yl)methyl)oxy)phenyl)hexanoic acid or (3S)-3-(3-(((2-((ethyloxy)methyl)-2′-fluoro-5′-(methyloxy)-1,1′-biphenyl-4-yl)methyl)oxy)phenyl)hexanoic acid]",1 to 10
12,"C=CC(C)(C)[C@H](O)c1cc(COc2cccc([C@H](CCC)CC(=O)O)c2)ccc1-c1cc(OC)ccc1F (single isomer, unassigned) [Example 67.25, (3R)-3-(3-(((2′-Fluoro-2-((1S)-1-hydroxy-2,2-dimethyl-3-butenyl)-5′-(methyloxy)-1,1′-biphenyl-4-yl)methyl)oxy)phenyl)hexanoic acid or (3R)-3-(3-(((2′-fluoro-2-((1R)-1-hydroxy-2,2-dimethyl-3-butenyl)-5′-(methyloxy)-1,1′-biphenyl-4-yl)methyl)oxy)phenyl)hexanoic acid]",1 to 10
13,"CCCC(CC(=O)O)c1cccc(OCc2ccc(-c3cc(OC)ccc3F)c(C(OC)C(C)(C)CC)c2)c1 (single isomer, unassigned) [Example 67.26]",1 to 10
14,"CCC[C@H](CC(=O)O)c1cccc(OCc2ccc(-c3cc(OC)ccc3F)c(COCC=C(C)C)c2)c1 (single isomer, unassigned) [Example 67.27, (3R)-3-(3-(((2′-Fluoro-2-(((3-methyl-2-butenyl)oxy)methyl)-5′-(methyloxy)-1,1′-biphenyl-4-yl)methyl)oxy)phenyl)hexanoic acid or (3S)-3-(3-(((2′-fluoro-2-(((3-methyl-2-butenyl)oxy)methyl)-5′-(methyloxy)-1,1′-biphenyl-4-yl)methyl)oxy)phenyl)hexanoic acid]",1 to 10
15,"CCCC(CC(=O)O)c1cccc(OCc2ccc(-c3cc(OC)ccc3F)c(CN3CCCC3)c2)c1 (single isomer, unassigned) [Example 67.28, (3R)-3-(3-(((2′-Fluoro-5′-(methyloxy)-2-(1-pyrrolidinylmethyl)-1,1′-biphenyl-4-yl)methyl)oxy)phenyl)hexanoic acid or (3S)-3-(3-(((2′-fluoro-5′-(methyloxy)-2-(1-pyrrolidinylmethyl)-1,1′-biphenyl-4-yl)methyl)oxy)phenyl)hexanoic acid]",1 to 10

# Continued, values first:
row,EC50 [µM],Compound
1,0.1 to 1,"COc1ccc(F)c(-c2ccc(COc3cccc(C(CCC(F)(F)F)CC(=O)O)c3)cc2C(C)(C)C)c1 (single isomer, unassigned) [Example 68.1, (3R)-3-(3-(((2-(1,1-Dimethylethyl)-2′-fluoro-5′-(methyloxy)-1,1′-biphenyl-4-yl)methyl)oxy)phenyl)-6,6,6-trifluorohexanoic acid or (3S)-3-(3-(((2-(1,1-dimethylethyl)-2′-fluoro-5′-(methyloxy)-1,1′-biphenyl-4-yl)methyl)oxy)phenyl)-6,6,6-trifluorohexanoic acid]"
2,1 to 10,"CCCCOc1cc(COc2cccc(C(CCC(F)(F)F)CC(=O)O)c2)ccc1-c1cc(OC)ccc1F (single isomer, unassigned) [Example 68.2, (3R)-3-(3-(((2-(Butyloxy)-2′-fluoro-5′-(methyloxy)-1,1′-biphenyl-4-yl)methyl)oxy)phenyl)-6,6,6-trifluorohexanoic acid or (3S)-3-(3-(((2-(butyloxy)-2′-fluoro-5′-(methyloxy)-1,1′-biphenyl-4-yl)methyl)oxy)phenyl)-6,6,6-trifluorohexanoic acid]"
3,0.1 to 1,"CCCCOc1cc(COc2cccc(C(CC(=O)O)CC3CC3)c2)ccc1-c1cc(OC)ccc1F (single isomer, unassigned) [Example 69.5, (3R)-3-(3-(((2-(Butyloxy)-2′-fluoro-5′-(methyloxy)-1,1′-biphenyl-4-yl)methyl)oxy)phenyl)-4-cyclopropylbutanoic acid or (3S)-3-(3-(((2-(butyloxy)-2′-fluoro-5′-(methyloxy)-1,1′-biphenyl-4-yl)methyl)oxy)phenyl)-4-cyclopropylbutanoic acid]"
4,0.1 to 1,"COc1ccc(F)c(-c2ccc(COc3cccc(C(CC(=O)O)CC4CC4)c3)cc2C2CCCC2(C)C)c1 (single isomer, unassigned) [Example 69.7]"
5,0.1 to 1,"COc1cccc(-c2ccc(COc3cccc(C(CC(=O)O)CC4CC4)c3)cc2C2CCCC2(C)C)c1 (single isomer, unassigned) [Example 69.9]"
6,1 to 10,"COc1ccc(F)c(-c2ccc(COc3cccc(C(CC(=O)O)CC4CC4)c3)cc2C(=O)C(C)(C)C)c1 (single isomer, unassigned) [Example 69.20, (3R)-4-Cyclopropyl-3-(3-(((2-(2,2-dimethylpropanoyl)-2′-fluoro-5′-(methyloxy)-1,1′-biphenyl-4-yl)methyl)oxy)phenyl)butanoic acid or (3S)-4-cyclopropyl-3-(3-(((2-(2,2-dimethylpropanoyl)-2′-fluoro-5′-(methyloxy)-1,1′-biphenyl-4-yl)methyl)oxy)phenyl)butanoic acid]"
